Test results reported in the NIST ThermoML archive (doi:10.1016/j.tca.2010.05.012).
Numbers after ± are expanded uncertainties.

Assay: molar heat capacity at constant pressure
Settings: Liquid, Large sample (1 g) DSC

## CC(C)O [propan-2-ol]
253.15 K, 100 kPa
  molar heat capacity at constant pressure: 129.4 ± 3.2 J/K/mol
253.15 K, 20000 kPa
  molar heat capacity at constant pressure: 126.1 ± 3.1 J/K/mol
253.15 K, 40000 kPa
  molar heat capacity at constant pressure: 125.8 ± 3.1 J/K/mol
258.15 K, 100 kPa
  molar heat capacity at constant pressure: 130.6 ± 3.2 J/K/mol
258.15 K, 20000 kPa
  molar heat capacity at constant pressure: 128.3 ± 3.1 J/K/mol
258.15 K, 40000 kPa
  molar heat capacity at constant pressure: 127.3 ± 3.1 J/K/mol
263.15 K, 100 kPa
  molar heat capacity at constant pressure: 132.6 ± 3.2 J/K/mol
263.15 K, 20000 kPa
  molar heat capacity at constant pressure: 130.7 ± 3.2 J/K/mol
263.15 K, 40000 kPa
  molar heat capacity at constant pressure: 129.2 ± 3.2 J/K/mol
268.15 K, 100 kPa
  molar heat capacity at constant pressure: 135 ± 3.3 J/K/mol
268.15 K, 20000 kPa
  molar heat capacity at constant pressure: 133.4 ± 3.3 J/K/mol
268.15 K, 40000 kPa
  molar heat capacity at constant pressure: 131.5 ± 3.2 J/K/mol
273.15 K, 100 kPa
  molar heat capacity at constant pressure: 138 ± 3.4 J/K/mol
273.15 K, 20000 kPa
  molar heat capacity at constant pressure: 136.3 ± 3.3 J/K/mol
273.15 K, 40000 kPa
  molar heat capacity at constant pressure: 134 ± 3.3 J/K/mol
278.15 K, 100 kPa
  molar heat capacity at constant pressure: 141.4 ± 3.5 J/K/mol
278.15 K, 20000 kPa
  molar heat capacity at constant pressure: 139.4 ± 3.4 J/K/mol
278.15 K, 40000 kPa
  molar heat capacity at constant pressure: 136.8 ± 3.4 J/K/mol
283.15 K, 100 kPa
  molar heat capacity at constant pressure: 145.1 ± 3.6 J/K/mol
283.15 K, 20000 kPa
  molar heat capacity at constant pressure: 142.6 ± 3.5 J/K/mol
283.15 K, 40000 kPa
  molar heat capacity at constant pressure: 140 ± 3.4 J/K/mol
288.15 K, 100 kPa
  molar heat capacity at constant pressure: 148.9 ± 3.6 J/K/mol
288.15 K, 20000 kPa
  molar heat capacity at constant pressure: 146 ± 3.6 J/K/mol
288.15 K, 40000 kPa
  molar heat capacity at constant pressure: 143.3 ± 3.5 J/K/mol
293.15 K, 100 kPa
  molar heat capacity at constant pressure: 152.9 ± 3.7 J/K/mol
293.15 K, 20000 kPa
  molar heat capacity at constant pressure: 149.6 ± 3.7 J/K/mol
293.15 K, 40000 kPa
  molar heat capacity at constant pressure: 146.9 ± 3.6 J/K/mol
298.15 K, 100 kPa
  molar heat capacity at constant pressure: 157 ± 3.8 J/K/mol
298.15 K, 20000 kPa
  molar heat capacity at constant pressure: 153.3 ± 3.8 J/K/mol
298.15 K, 40000 kPa
  molar heat capacity at constant pressure: 150.7 ± 3.7 J/K/mol
303.15 K, 100 kPa
  molar heat capacity at constant pressure: 161.1 ± 3.9 J/K/mol
303.15 K, 20000 kPa
  molar heat capacity at constant pressure: 157.1 ± 3.8 J/K/mol
303.15 K, 40000 kPa
  molar heat capacity at constant pressure: 154.7 ± 3.8 J/K/mol
308.15 K, 100 kPa
  molar heat capacity at constant pressure: 165 ± 4 J/K/mol
308.15 K, 20000 kPa
  molar heat capacity at constant pressure: 161.1 ± 3.9 J/K/mol
308.15 K, 40000 kPa
  molar heat capacity at constant pressure: 159 ± 3.9 J/K/mol
313.15 K, 100 kPa
  molar heat capacity at constant pressure: 168.6 ± 4.1 J/K/mol
313.15 K, 20000 kPa
  molar heat capacity at constant pressure: 165 ± 4 J/K/mol
313.15 K, 40000 kPa
  molar heat capacity at constant pressure: 163.3 ± 4 J/K/mol
318.15 K, 100 kPa
  molar heat capacity at constant pressure: 171.9 ± 4.2 J/K/mol
318.15 K, 20000 kPa
  molar heat capacity at constant pressure: 169.1 ± 4.1 J/K/mol
318.15 K, 40000 kPa
  molar heat capacity at constant pressure: 167.8 ± 4.1 J/K/mol
323.15 K, 100 kPa
  molar heat capacity at constant pressure: 174.9 ± 4.3 J/K/mol
323.15 K, 20000 kPa
  molar heat capacity at constant pressure: 173.2 ± 4.2 J/K/mol
323.15 K, 40000 kPa
  molar heat capacity at constant pressure: 172.4 ± 4.2 J/K/mol
